Here are results for 3 compounds from patent US5185319A, “Stabilization of organic compounds” (National Research Development Corporation, priority 1989, dated 1993).

The target of one data set is porcine insulin (Sus scrofa, UniProt P01315). In words: Stability of insulin in solution with chelating agent, reverse phase HPLC. In kind it is physicochemical. To be noted: pH 7.0 solution; for effect on stability of insulin (amount of insulin present as percentage of the original amount): 100 μM chelating agent, 4, 8 and 12 weeks. On the procedure: A solution was prepared corresponding to that described in Example 1 containing porcine insulin and being pyrogen-free but not sterile. For comparative purposes a further solution was prepared in which the hydroxypyridone was replaced by the alternative chelating agent 3-hydroxy-2-methyl-4-pyrone.
Sequence of porcine insulin (P01315 25-54 limits assumed): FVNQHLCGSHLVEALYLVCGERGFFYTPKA
Sequence of porcine insulin (P01315 88-108 limits assumed): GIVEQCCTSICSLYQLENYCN
The solutions were incubated at either 4° C. or 37° C. and the stability of the insulin was studied over a period of 12 weeks through use of the reverse phase HPLC method described by Seipke et al, Angew. Chem. Int. Ed. Engl., 1986, 25, 535-552 and by Grau, Diabetologia, 1985, 28, 458-463. The amount of insulin present in the solution at 4, 8 and 12 weeks was then calculated as a percentage of the original amount present.

In a further data set the test system is insulin. Put plainly: Investigation of chelating agents for stabilization of insulin. In kind it is physicochemical.

In the case of `COCCn1ccc(=O)c(O)c1C` [3-hydroxy-1-(2'-methoxyethyl)-2-methylpyrid-4-one], the “degradation of insulin over the whole period of 12 weeks” value on porcine insulin (incubated at 4° C., 100 μM chelating agent) is listed as “no degradation was observed”. The “effect on stability of insulin (amount of insulin present as percentage of the original amount)” value on porcine insulin (incubated at 4° C.) was “stabilises insulin”; on porcine insulin (incubated at 37° C.), “stabilises insulin, to some extent”.

Turning to `Cc1occc(=O)c1O` [3-hydroxy-2-methyl-4-pyrone], the “effect on stability of insulin (amount of insulin present as percentage of the original amount)” value at porcine insulin (incubated at 4° C.) and at porcine insulin (incubated at 37° C.) was “destabilises insulin” in each case. Further, the “stabilizing effect on insulin” value in the data set on insulin is reported as “no stabilizing effect”.

With `O=C(O)CN(CCN(CC(=O)O)CC(=O)O)CC(=O)O` [ethylene diamine tetra-acetic acid], the “stabilizing effect on insulin” value in the data set with insulin is reported as “no stabilizing effect”.
